From US20260191815A1, “THIOACRYLAMIDE DERIVATIVES FOR USE IN THE PREVENTION OR TREATMENT OF LIVER FIBROSIS” (CMR CUREDIAB METABOLIC RESEARCH GMBH, priority 2022, published 2026)

Key:
[1] = tested on: CCl4-intoxicated C57BL/6J mice; experiment: CCl4-induced liver fibrosis in mice, oral gavage once daily for 2 weeks; assay type: in vivo, mouse
Experimental: C57BL/6J mice were housed in housing cages GM500 (500 cm^3) throughout the experimental phase. Animals' cages litters were changed at least once a week. They were housed in groups of 4 animals on a normal 12-hour light cycle (at 07:30 pm lights off), 22±2° C. and 55±10% relative humidity. Animals were acclimated for 5 days. During the whole phase standard diet (SAFE, Ref.: U8400G10R) and tap water were provided ad libitum.
After the acclimation period, mice were intoxicated with CCl4 i.p. twice weekly for 2 weeks to induce liver fibrosis. Body weight was recorded twice weekly for the 2-week intoxication period. After 2 weeks of CCl4 injection (~72 hours after the 4th injection of CCl4), mice were weighted and bled at ~08:00 am to collect blood (150 μL blood on heparin by retro-orbital bleeding under isoflurane anaesthesia) and measure plasma ALT and AST levels. Mice were then randomized into 2 homogenous groups (n=10/group) based on 1) ALT, 2) AST and 3) body weight.
Mice were treated by oral gavage once daily with vehicle or HK3 for 2 weeks (from day 0 to day 13). During this 2-week treatment period, CCl4 twice weekly i.p. injection was still performed until the end of the in-life phase. Body weight was recorded twice weekly, during the 2-week treatment period.
At the end of the treatment period (~48 hours after the last injection of CCl4), all mice were weighed and 3 h-fasted at ~10:00 am. The last dose of vehicle and test compound was administered at ~10:00 am, prior to blood collection (retro-orbital bleeding under isoflurane anesthesia for maximal volume/heparin) at ~1:00 pm. Plasma was isolated and immediately stored at −80° C.
Subsequently, the liver of each mouse was collected and weighted. Liver samples were dissected from the left lateral lobe for formalin-fixed paraffin-embedded samples for shipment for histology analysis (H&E and Sirius Red staining), % Sirius Red labelling and NAS scoring.
A total of 50 slides, each having a single hepatic lobe section stained with H&E (25) and Sirius red (25) were digitized using a Nanozoomer from Hamamatsu at Sciempath laboratory and posted on a secured digital slide server. They were downloaded and visualized using NDP viewer. Sections were evaluated with knowledge of groups but without knowledge of treatment. Each section was evaluated and individually scored.
A NAFLD scoring system (NAS), with which a total of four variables was qualitatively assessed and ranked with a score: (1) hepatocellular steatosis, (2) liver inflammation, (3) lobular fibrosis, and (4) hepatocyte ballooning.
An individual mouse NAS total score was calculated for each animal by summing up the score for (1) hepatocellular steatosis, (2) liver inflammation, (3) lobular fibrosis, and (4) hepatocyte ballooning. Whole-section histomorphometric measurements of positive area for Sirius Red were performed using computer-assisted image analysis on digitized sections. The histomorphometric measurements were generated with the software from Visiopharm (Denmark) using an automated approach. Analysis was performed on virtual whole sections at 20× magnification for morphometric evaluation. The pixel value at 20× magnification corresponded to 0.46 μm/pixel.
An algorithm was prepared for Sirius Red (SR) morphometric measurement on liver-stained sections. The algorithm was generated with the Bayesian linear segmentation tool in the software package, which was further refined through training on a subset of sections from 5 animals. Major histology section artefacts, as well as, large vascular empty spaces were automatically dissected and removed from area of interest (AOI) or detected positive area. Also, positive collagen from capsule and large vessels media layer was automatically excluded from SR positive area.
The total area analysed or AOI (mm2), the total SR positive area (mm2) and the percent “SR” area/total liver area analysed (%) were determined. […]

[2] = tested on: IL-8 secretion in 3D PHH:NPC spheroids; experiment: IL-8 secretion (Luminex) by 3D PHH:NPC NASH spheroids; assay type: cell-based, human; details: across 1-10 μM, NASH medium
Experimental: Experiments were conducted using HepaPredict's (HepaPredict AB, Sweden) 3D primary human hepatocyte (PHH) spheroid NASH model (e.g. as published in Bell et al. Sci Rep. 2016 May 4; 6:25187. doi: 10.1038/srep25187).
Cryopreserved primary human hepatocytes were obtained from BioIVT (USA) and nonparenchymal cells (NPC) from LifeNetHealth (USA). After thawing, PHH-NPC cocultures were seeded in a multi-well 96-well Elplasia plate (Corning) in William's E medium containing 11 mM glucose, 10 μg/mL (control) or 10 mg/mL insulin (NASH), 100 nM dexamethasone, 5.5 mg/L transferrin, 6.7 μg/L selenite, 2 mM L-glutamine, 1 U/mL penicillin, 0.1 mg/mL streptomycin, and 10% fetal bovine serum (FBS). […]
After spheroid formation, cells were exposed to up to five different concentrations of the candidate molecules HK1 or HK3 (0.1 μM, 0.3 μM, 1 μM, 3 μM, and 10 μM) with or without FFA in the culture medium. […] All endpoints were evaluated after 14 days of exposure. […]
Secreted cytokines (IL-6 and IL-8) were measured in culture supernatants using a customized Magnetic Luminex Performance Assay (Human Cytokine Panel A, R&D Systems). […] The fluorescence intensity was measured using a Bio-Plex 200 system (Bio-Rad), the median fluorescence intensity of each analyte was analyzed with the Bio-Plex Manage software (version 6.2) using a 5-parameter regression algorithm. […]

[3] = CCl4 mice, oral gavage once daily, 2 weeks

Cc1cc(NC(=S)/C(C#N)=C(\O)C2CC2)ccc1[N+](=O)[O-] [HK3, 2-Cyano-3-cyclopropyl-3-hydroxy-N-(3-methyl-4-nitro-phenyl)-thioacrylamide]
percentage of Sirius Red labelling compared to baseline group ([1]; CCl4 mice, liver sections, p<0.01): significantly increased | percentage of Sirius Red labelling compared to the vehicle group ([1]; CCl4 mice, liver sections, p<0.05): significantly reduced | number of mice with a fibrosis score equal to 2 ([1]; CCl4 mice, n=10/group): 9 mice | number of mice with a fibrosis score equal to 3 ([1]; CCl4 mice, n=10/group): 1 mouse | body weight and body weight gain compared to vehicle treatment [1, 3]: not altered | liver weight and relative liver weight compared to vehicle treatment [1, 3]: did not change | plasma ALT and AST levels compared to vehicle treatment [1, 3]: did not change | fibrosis score, treated group versus vehicle-treated group ([1]; CCl4 mice, p<0.05): significant difference | fibrosis score, treated group versus baseline group ([1]; CCl4 mice, baseline = CCl4 for two weeks only): no significant difference | TNF-α levels in liver homogenates compared to CCl4-treated group ([1]; combined administration with CCl4, p<0.05): slight but significant downregulation | IL-8 levels compared to NASH [2]: 80-91%
